The results in this text go back to US12084462B2, “Spiro bicyclic inhibitors of menin-MLL interaction” (Janssen Pharmaceutica NV, priority 2016, dated 2024).

The test system of one assay is MOLM14. The assay is described as follows: Proliferation assay (spheroid assay) MOLM14. It counts as cell-based, human. The protocol: (§1) The anti-proliferative effect of menin/MLL protein/protein interaction inhibitor test compounds was assessed in human leukemia cell lines. The cell lines MV-4-11 and MOLM14 harbor MLL translocations and express the MLL fusion proteins MLL-AF4 and MLL-AF9, respectively, as well as the wildtype protein from the second allele. […] K562 and KG1 were used as a control cell lines containing two MLL wildtype alleles in order to exclude compounds that display general cytotoxic effects.
(§2) MV-4-11 and MOLM14 were cultured in RPMI-1640 (Sigma Aldrich) supplemented with 10% fetal bovine serum (HyClone), 2 mM L-glutamine (Sigma Aldrich) and 50 μg/ml gentamycin (Gibco). K562 were propagated in RPMI-1640 (Sigma Aldrich) supplemented with 20% fetal bovine serum (HyClone), 2 mM L-glutamine (Sigma Aldrich) and 50 μg/ml gentamycin (Gibco). KG1 were cultured in Iscove's MDM (Gibco) supplemented with 20% fetal bovine serum (HyClone), 2 mM L-glutamine (Sigma Aldrich) and 50 μg/ml gentamycin (Gibco).
(§3) In order to assess the anti-proliferative effects, 1,500 MV-4-11, 300 MOLM14, 750 K562 or 1,300 KG1 cells were seeded in 200 μl media per well in 96-well round bottom, ultra-low attachment plates (Costar, catalogue number 7007). Cell seeding numbers were chosen based on growth curves to ensure linear growth throughout the experiment. Test compounds were added at different concentrations and the DMSO content was normalized to 0.3%. Cells were incubated for 8 d at 37° C. and 5% CO2. Spheroid like growth was monitored in real-time by live-cell imaging (IncuCyteZOOM, Essenbio, 4× objective) acquiring one image every four hours for 8 d. Confluence (%) as a measure of spheroid size was determined using an integrated analysis tool.
(§4) In order to determine the cumulative effect of the test compounds over time, the area under the curve (AUC) in a plot of confluence against time was calculated. Confluence at the beginning of the experiment (t=0) was used as baseline for the AUC calculation.
(§5) Absolute IC50 values were calculated according to the following procedure: % Control=(AUC sample/AUC control)*100 AUC control=mean AUC of control values (cells without compound/DMSO as vehicle control)
(§6) A non-linear curve fit was applied using the least squares (ordinary) fit method to the plot of % control versus compound concentration. Based on this, the absolute IC50 value (half maximal inhibitory concentration of the test compound causing an anti-proliferative effect of 50% relative to the vehicle control) was calculated.

For another assay, the system named is KG1. The assay is described as follows: Proliferation assay (spheroid assay) KG1, control cell line. It counts as cell-based. To be noted: Homo sapiens. The protocol:
as §1, §2, §3, §4, §5, §6

The subject of a further assay is MV-4-11. Description: Proliferation assay (spheroid assay) MV-4-11. The class given is cell-based, human. In outline:
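Cells grown as spheroids in ultra-low attachment round-bottom wells with compound at varied concentrations (0.3% DMSO) for 8 d at 37 °C; confluence imaged every 4 h. AUC of confluence over time (t=0 baseline) expressed as % of vehicle control; absolute IC50 from nonlinear least-squares fit.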

For the next assay, the system named is K562. The assay is described as follows: Proliferation assay (spheroid assay) K562, control cell line. It counts as cell-based. To be noted: Homo sapiens; K562 control cell line; averaged values; read-out: Spheroid assay K562 (IC50 (μM)). The method, then:
as §1, §2, §3, §4, §5, §6

A further assay concerns the target T1, menin (Homo sapiens, UniProt O00255, T541A).
T1 sequence (O00255 with tags, fused parts or gaps T541A): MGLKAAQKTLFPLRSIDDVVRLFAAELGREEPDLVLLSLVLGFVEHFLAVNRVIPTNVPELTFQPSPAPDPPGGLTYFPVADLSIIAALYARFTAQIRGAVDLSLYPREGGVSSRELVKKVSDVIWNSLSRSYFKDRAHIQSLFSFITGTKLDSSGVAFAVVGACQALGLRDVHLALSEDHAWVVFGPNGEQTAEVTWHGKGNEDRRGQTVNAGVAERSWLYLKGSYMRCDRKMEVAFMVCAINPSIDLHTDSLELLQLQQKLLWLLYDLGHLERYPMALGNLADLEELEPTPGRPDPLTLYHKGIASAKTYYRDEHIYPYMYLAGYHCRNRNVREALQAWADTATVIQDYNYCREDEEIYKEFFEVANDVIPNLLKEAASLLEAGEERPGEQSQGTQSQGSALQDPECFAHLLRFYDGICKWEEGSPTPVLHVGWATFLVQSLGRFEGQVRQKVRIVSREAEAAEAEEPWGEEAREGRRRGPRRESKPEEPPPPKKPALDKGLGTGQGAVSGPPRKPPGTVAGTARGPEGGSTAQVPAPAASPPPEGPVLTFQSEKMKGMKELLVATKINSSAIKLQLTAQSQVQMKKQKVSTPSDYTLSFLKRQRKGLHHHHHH
Description: Menin/MLL fluorescence polarization (FP) assay. It counts as binding. The protocol: 1) Menin/MLL Fluorescence Polarization Assay
To a non-surface binding, black 384-well microtiter plate was added 50 nL 160× test compound in DMSO and 4 μL 2× menin in assay buffer (40 mM Tris·HCl, pH 7.5, 50 mM NaCl, 1 mM DTT and 0.001% Tween 20). After incubation of test compound and menin for 10 min at ambient temperature, 4 μL 2×FITC-MBM1 peptide (FITC-β-alanine-SARWRFPARPGT-NH2 (SEQ ID NO: 2)) in assay buffer was added, the microtiter plate centrifuged at 1000 rpm for 1 min and the assay mixtures incubated for 15 min at ambient temperature. The relative amount of menin·FITC-MBM1 complex present in an assay mixture is determined by measuring the fluorescence polarization (FP) of the FITC label with a BMG Pherastar plate reader (ex. 485 nm/em. 520 nm) at ambient temperature. The final concentrations of reagents in the binding assay are 100 nM menin, 5 nM FITC-MBM1 peptide and 0.625% DMSO in assay buffer. Dose-response titrations of test compounds are conducted using an 11 point, three-fold serial dilution scheme, starting at 31 μM.
Compound potencies were determined by first calculating % inhibition at each compound concentration according to equation 1: % inhibition=((HC−LC)−(FP^compound−LC))/(HC−LC))*100 (Eqn 1)
Where LC and HC are the FP values of the assay in the presence or absence of a saturating concentration of a compound that competes with FITC-MBM1 for binding to menin, and FP^compound is the measured FP value in the presence of the test compound. HC and LC FP values represent an average of at least 16 replicates per plate. […] 2) Proliferation Assay

Where [1] appears, read: Homo sapiens, MOLM-14, MOLM14, averaged values, read-out: Spheroid assay MOLM14 (IC50 (μM)).
[2] abbreviates: KG-1, KG1 control cell line, averaged values, read-out: Spheroid assay KG1 (IC50 (μM)).
Setting [3] is: Homo sapiens, MV4-11, MV-4-11, averaged values, read-out: Spheroid assay MV-4-11 (IC50 (μM)).
Setting [4] is: averaged values over all measurements, read-out: Menin FP assay (IC50 (μM)).

“And” between values parts separate entries of the source, which are not always exact repeats. Equal values may be shown once. Read-outs that look alike come from different tables or passages of the source.

The IC50 is the concentration needed to halve the response being measured. As for `CC(C)C(c1cnn(C(C)C)c1)N1CC2(CCN(c3ncnc4sc(CC(F)(F)F)cc34)C2)C1` (stereo not shown) [Compound 214], the IC50 in the assay with MOLM14 (setting [1]) is 1.4 µM; with KG1 (setting [2]), greater than 15 µM; in the assay on MV-4-11 (setting [3]), 0.76 µM.
As to `CC(C)[C@H](c1cnn(C)c1)N1CC2(CCN(c3ncnc4sc(CC(F)(F)F)cc34)C2)C1` [Compound 274], the IC50 in the assay with MOLM14 (setting [1]) is 2.3 µM; in the assay with KG1 (setting [2]), greater than 15 µM; with K562, greater than 15 µM; with MV-4-11 (setting [3]), 0.36 µM.
Consider `CC(C)C(CC1CCN(C)CC1)N1CC2(CCN(c3ncnc4sc(CC(F)(F)F)cc34)C2)C1` (stereo not shown) [Compound 316], for which the IC50 with MOLM14 (setting [1]) is 0.96 µM; in the assay on KG1 (setting [2]), greater than 3.7 µM; in the assay with MV-4-11 (setting [3]), 0.4 µM.
With `CC(C)C(N1CC2(CCN(c3ncnc4sc(CC(F)(F)F)cc34)C2)C1)C1(F)CNC1` (stereo not shown) [Compound 269], the half-maximal inhibitory concentration (IC50) in the assay on MOLM14 (setting [1]) is 4.6 µM; in the assay on KG1 (setting [2]) it was greater than 15 µM; with MV-4-11 (setting [3]) it was 0.67 µM.
In the same order, the values of `CC(C)[C@@H](c1cn[nH]c1)N1CC2(CCN(c3ncnc4sc(CC(F)(F)F)cc34)C2)C1` [Compound 245] are 2 µM, greater than 15 µM and 0.32 µM.
In the same order, the values of `CC(Cc1ccc(F)cc1)N1CC2(CCN(c3ncnc4sc(CC(F)(F)F)cc34)C2)C1` (stereo not shown) [Compound 84] are 1.5 µM, greater than 15 µM and 0.58 µM.
Taken in the same sequence, the figures for `Fc1ccc(CN2CC[C@@]3(CCN(c4ncnc5sc(CC(F)(F)F)cc45)C3)C2)cc1` (single isomer, unassigned) [Compound 292] were 1.5 µM, greater than 15 µM and 0.29 µM.
Consider `Fc1ccc(CN2CC[C@]3(CCN(c4ncnc5sc(CC(F)(F)F)cc45)C3)C2)cc1` (single isomer, unassigned) [Compound 291], for which the figures for the IC50 in the assay on MOLM14 (setting [1]), with KG1 (setting [2]) and in the assay on MV-4-11 (setting [3]) were 1.2 µM, greater than 15 µM and 0.66 µM, respectively.
In the same order, the values of `CC(C1CCOCC1)N1CC2(CCN(c3ncnc4sc(CC(F)(F)F)cc34)C2)C1` (single isomer, unassigned) [Compound 155] are 1.2 µM, greater than 15 µM and 0.7 µM.
Turning to `FC(F)(F)Cc1cc2c(N3CCC4(CN(Cc5cn6ccccc6n5)C4)C3)ncnc2s1` [Compound 5], the IC50 is 30.6 µM in the assay with MOLM14 (setting [1]), greater than 15 µM in the assay on K562, 0.67 µM at menin (setting [4]) and 6.4 µM in the assay on MV-4-11 (setting [3]).
With `CC(CN1CC2(CCN(c3ncnc4sc(CC(F)(F)F)cc34)C2)C1)c1ccc(F)cc1` (stereo not shown) [Compound 317], the IC50 with KG1 (setting [2]) was greater than 15 µM; in the assay on MV-4-11 (setting [3]) it was 0.77 µM.
Take `FC(F)(F)Cc1cc2c(N3CCCC4(CCN(Cc5ccccc5)C4)C3)ncnc2s1` (racemic) [Compound 18]: the IC50 in the assay on MOLM14 (setting [1]) is 7.7 µM; with K562, greater than 15 µM; on menin (setting [4]), 0.14 µM; in the assay with MV-4-11 (setting [3]), 3.9 µM.
Taken in the same sequence, the figures for `FC(F)(F)Cc1cc2c(N3CC[C@@]4(CCN(Cc5ccccc5)C4)C3)ncnc2s1` (single isomer, unassigned) [Compound 20a] were 5 µM, greater than 15 µM, 0.076 µM and 0.96 µM.
For the compound `CC(C)C(c1cnn(CCO)c1)N1CC2(CCN(c3ncnc4sc(CC(F)(F)F)cc34)C2)C1` (stereo not shown) [Compound 62], the IC50 in the assay on MOLM14 (setting [1]) is 4 µM; with KG1 (setting [2]), greater than 15 µM; in the assay on MV-4-11 (setting [3]), 0.64 µM.
Consider `FC(F)(F)Cc1cc2c(N3CCC4(CCN(Cc5ccccc5)C4)CC3)ncnc2s1` [Compound 3], for which the IC50 in the assay on MOLM14 (setting [1]) was 5.6 µM; with K562, roughly 15 µM; on menin (setting [4]), 0.1 µM; in the assay with MV-4-11 (setting [3]), 3.8 µM.
With `CC(C)[C@@H](N1CC2(CCN(c3ncnc4sc(CC(F)(F)F)cc34)C2)C1)C1(F)CN(C)C1` [Compound 304a], the IC50 in the assay with MOLM14 (setting [1]) was 1.3 µM; in the assay with KG1 (setting [2]), greater than 15 µM; with MV-4-11 (setting [3]), 0.44 µM.
With `CC(C)[C@@H](c1cnn(C)c1)N1CC[C@]2(CCN(c3ncnc4sc(CC(F)(F)F)cc34)C2)C1` (single isomer, unassigned) [Compound 189], the half-maximal inhibitory concentration (IC50) was greater than 15 µM with KG1 (setting [2]) and 0.92 µM with MV-4-11 (setting [3]).
`N#Cc1cc2cc(CN3CC4(CCN(c5ncnc6sc(CC(F)(F)F)cc56)C4)C3)ccc2[nH]1` [Compound 17]: the concentration for half-maximal inhibition (IC50) was 3.4 µM in the assay with MOLM14 (Homo sapiens, MOLM-14, 192 h, MOLM14 (MLL-AF9), 8 d, absolute IC50 from AUC of confluence, individual measurements (not averaged), read-out: (2) Spheroid assay MOLM14 (IC50 (μM))); 2.3 µM in the assay with MOLM14 (MOLM14 (MLL-AF9), 8 d, absolute IC50 from AUC of confluence, individual measurements (not averaged), read-out: (2) Spheroid assay MOLM14 (IC50 (μM))); 11 µM in the assay with KG1 (KG-1, 192 h, KG1 (MLL wildtype control), 8 d, absolute IC50 from AUC of confluence, individual measurements (not averaged), read-out: (2) Spheroid assay KG1 (IC50 (μM))); 0.054 µM on menin (100 nM menin, 5 nM FITC-MBM1 peptide, individual measurements (not averaged), read-out: (1) Menin FP assay (IC50 (μM))); 4.9 µM and 0.76 µM and 0.84 µM in the assay on MV-4-11 (MV-4-11 (MLL-AF4), 8 d, absolute IC50 from AUC of confluence, individual measurements (not averaged), read-out: (2) Spheroid assay MV-4-11 (IC50 (μM))).
With `CC(C)C(CC1CCNCC1)N1CC2(CCN(c3ncnc4sc(CC(F)(F)F)cc34)C2)C1` (stereo not shown) [Compound 315], the figures for the IC50 with MOLM14 (setting [1]), in the assay on KG1 (setting [2]) and in the assay with MV-4-11 (setting [3]) were 1.5 µM, greater than 15 µM and 0.32 µM, respectively.
Taken in the same sequence, the figures for `CC(C)C(Cc1ccccc1)N1CC2(CCN(c3ncnc4sc(CC(F)(F)F)cc34)C2)C1` (stereo not shown) [Compound 182] were 1.9 µM, greater than 15 µM and 0.78 µM.
`CC(C)CN1CC[C@@]2(CCN(c3ncnc4sc(CC(F)(F)F)cc34)C2)C1` [Compound 184]: the IC50 was greater than 15 µM with KG1 (setting [2]) and 0.97 µM with MV-4-11 (setting [3]).
